Test results published in paper PMC8151276, “An Integrated Approach toward NanoBRET Tracers for Analysis of GPCR Ligand Engagement” (Molecules, 2021).

Key:
Assay type in all cases: binding
PTGER4 = target: T1, PTGER4 (Homo sapiens, UniProt P35408); assay: NanoBRET screen HiBiT-PTGER4 in HEK293
T1 construct: purchased Promega (in-house HiBiT-GPCR construct library, NanoBRET)
Method: (§1) Each tracer candidate was screened across the entire library of HiBiT-GPCR constructs using NanoBRET as the detection modality. As depicted in Figure 4A, the specificity of interactions was evaluated through decrease in BRET due to competitive displacement of a bound tracer by excess parental compound. Each tracer was analyzed for binding to each HiBiT-GPCR fusion in the absence and in the presence of competing parental compound. Briefly, HEK293 cells were transfected with HiBiT-GPCR constructs diluted into promoterless DNA to reduce expression and maximize translocation to the cell surface. Each tracer candidate was then screened at concentrations of 1 μM and 0.1 μM across cells expressing these fusions. Cells were treated for 1.5 h with tracer either alone or in the presence of 20 μM competing parental compound (i.e., control). BRET was measured upon addition of purified LgBiT and subsequent complementation with HiBiT genetically fused to a GPCR. The specificity of interactions was assessed through a decrease in BRET signal due to competitive displacement of the bound tracer. To further gauge the robustness of these interactions, the fold response over the control (i.e., BRETtracer/BRETcontrol) was calculated. We chose a 1.5-fold response, which translates to ≥7-fold signal over noise as the minimal threshold required to score an interaction as positive. […]. Below we highlight the screening results obtained for our exemplary fluorescent tracers based on Clozapine, Amitriptyline and AZD1283.
(§2) HiBiT-GPCR DNA constructs were diluted in 10 mM Tris pH 8 to a final concentration of 0.01 μg/μL, arrayed in 96-well plates and stored at −20 °C. For transfection, HEK293 cells were suspended in Opti-MEM (without phenol red) supplemented with 2% fetal bovine serum (Seradigm) and 100 units/mL penicillin–streptomycin (Gibco) at a final concentration of 220,000 cells/mL and dispensed into white 96-well plates at 90 μL/well. Subsequent transfections and screens were carried using an Agilent Bravo Automated Liquid Handling Platform. First, the 96-well HiBiT DNA arrays were diluted 25-fold in Opti-MEM (without serum or phenol red) to a final concentration of 0.0004 μg/μL and 20 μL of the diluted DNAs were transferred into new 96-well plates. Next, promoterless carrier DNA (1 μg/μL) was diluted 25-fold (0.04 μg/μL) and then dispensed into the diluted arrays at 20 μL/well. Following brief mixing, Viafect transfection reagent (Promega) diluted 16-fold into Opti-MEM was dispensed into the plates at 40 μL/well. After mixing by pipetting, plates were incubated for 10 min on the pipetting station deck. The DNA-transfection reagent complexes were then added to plates containing cells. To facilitate the screen, 10 μL of DNA-transfection reagent complexes were added in duplicates to the top 4 and bottom 4 rows, resulting in two identical 48-well arrays per plate. Plates with transfected cells were incubated for 18–20 h at 37 °C/5% CO2. A screen of each tracer across the entire library using two different concentrations requires duplicate plates of transfected cells. Depending on the number of tracers being screened, transfections can be scaled up using the same ratios. The next day, for each tracer, four 20× screening solutions in tracer dilution buffer (Promega) were prepared: two duplicates at final concentration of 20 μM and two duplicates at a final concentration of 2 μM. A competing unmodified compound was added to one of each duplicate at a final concentration of 400 μM. The four resulting solutions were diluted 4-fold in Opti-MEM without serum or phenol red to generate 5× solutions (5 µM and 0.5 µM tracer +/− 100 μM competing compound). To screen the library, a BioTek MultiFlo FX liquid dispenser was used to dispense 22.5 µL of tracer solution to the top 4 rows and 22.5 µL tracer + competing compound solution to the 4 bottom rows. Plates were briefly mixed on an orbital shaker and incubated for 1.5 h at room temperature. […]

P2RY13 = target: T2, P2RY13 (Homo sapiens, UniProt Q9BPV8); assay: NanoBRET screen HiBiT-P2RY13 in HEK293
T2 construct: purchased Promega (in-house HiBiT-GPCR construct library, NanoBRET)
T2 sequence (Q9BPV8 1-354): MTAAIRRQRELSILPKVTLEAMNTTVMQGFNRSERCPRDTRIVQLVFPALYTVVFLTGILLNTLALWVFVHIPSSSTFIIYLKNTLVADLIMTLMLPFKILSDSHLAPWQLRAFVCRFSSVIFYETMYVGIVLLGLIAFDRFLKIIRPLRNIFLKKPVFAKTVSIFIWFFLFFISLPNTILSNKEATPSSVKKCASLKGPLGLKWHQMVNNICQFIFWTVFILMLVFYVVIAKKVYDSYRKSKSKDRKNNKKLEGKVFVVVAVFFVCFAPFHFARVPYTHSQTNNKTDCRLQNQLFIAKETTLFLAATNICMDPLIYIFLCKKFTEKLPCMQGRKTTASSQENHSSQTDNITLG
Method: as §1, §2

RXFP4 = target: T3, RXFP4 (Homo sapiens, UniProt Q8TDU9); assay: NanoBRET screen HiBiT-RXFP4 in HEK293
T3 construct: purchased Promega (in-house HiBiT-GPCR construct library, NanoBRET)
T3 sequence (Q8TDU9 whole entry): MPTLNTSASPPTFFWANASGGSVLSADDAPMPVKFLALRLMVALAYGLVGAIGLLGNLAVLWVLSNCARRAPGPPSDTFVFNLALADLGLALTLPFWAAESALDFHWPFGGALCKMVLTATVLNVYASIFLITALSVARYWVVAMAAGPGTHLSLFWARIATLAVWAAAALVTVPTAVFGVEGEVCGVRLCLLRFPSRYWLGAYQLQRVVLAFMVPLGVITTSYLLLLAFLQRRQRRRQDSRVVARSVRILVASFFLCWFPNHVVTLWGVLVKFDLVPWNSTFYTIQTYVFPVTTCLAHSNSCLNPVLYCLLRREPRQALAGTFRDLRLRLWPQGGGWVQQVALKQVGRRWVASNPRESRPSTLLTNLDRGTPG
Method: as §1, §2

BRS3 = target: T4, BRS3 (Homo sapiens, UniProt P32247); assay: NanoBRET screen HiBiT-BRS3 in HEK293
T4 construct: purchased Promega (in-house HiBiT-GPCR construct library, NanoBRET)
T4 sequence (P32247 1-399): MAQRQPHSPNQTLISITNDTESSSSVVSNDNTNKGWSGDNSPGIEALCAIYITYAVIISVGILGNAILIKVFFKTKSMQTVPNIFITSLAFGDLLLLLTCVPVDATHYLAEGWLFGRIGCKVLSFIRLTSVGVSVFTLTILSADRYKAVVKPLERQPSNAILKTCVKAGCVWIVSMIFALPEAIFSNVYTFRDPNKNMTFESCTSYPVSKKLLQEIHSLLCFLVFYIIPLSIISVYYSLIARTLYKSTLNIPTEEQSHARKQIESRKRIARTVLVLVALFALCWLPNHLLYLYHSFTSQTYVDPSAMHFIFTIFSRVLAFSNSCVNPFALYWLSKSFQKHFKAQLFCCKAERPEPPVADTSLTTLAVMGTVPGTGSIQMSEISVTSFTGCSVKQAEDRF
Method: as §1, §2

GALR3 = target: T5, GALR3 (Homo sapiens, UniProt O60755); assay: NanoBRET screen HiBiT-GALR3 in HEK293
T5 construct: purchased Promega (in-house HiBiT-GPCR construct library, NanoBRET)
T5 sequence (O60755 1-368): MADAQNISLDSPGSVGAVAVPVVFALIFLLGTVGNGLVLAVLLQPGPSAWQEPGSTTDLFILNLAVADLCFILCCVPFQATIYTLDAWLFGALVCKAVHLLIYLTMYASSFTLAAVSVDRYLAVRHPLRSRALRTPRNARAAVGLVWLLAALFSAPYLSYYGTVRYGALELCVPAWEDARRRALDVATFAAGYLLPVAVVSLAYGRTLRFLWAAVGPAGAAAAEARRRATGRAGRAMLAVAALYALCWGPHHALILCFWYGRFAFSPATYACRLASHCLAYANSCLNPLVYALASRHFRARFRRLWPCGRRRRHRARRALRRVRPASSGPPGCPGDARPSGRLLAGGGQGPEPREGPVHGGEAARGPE
Method: as §1, §2

T1 sequence (P35408 whole entry): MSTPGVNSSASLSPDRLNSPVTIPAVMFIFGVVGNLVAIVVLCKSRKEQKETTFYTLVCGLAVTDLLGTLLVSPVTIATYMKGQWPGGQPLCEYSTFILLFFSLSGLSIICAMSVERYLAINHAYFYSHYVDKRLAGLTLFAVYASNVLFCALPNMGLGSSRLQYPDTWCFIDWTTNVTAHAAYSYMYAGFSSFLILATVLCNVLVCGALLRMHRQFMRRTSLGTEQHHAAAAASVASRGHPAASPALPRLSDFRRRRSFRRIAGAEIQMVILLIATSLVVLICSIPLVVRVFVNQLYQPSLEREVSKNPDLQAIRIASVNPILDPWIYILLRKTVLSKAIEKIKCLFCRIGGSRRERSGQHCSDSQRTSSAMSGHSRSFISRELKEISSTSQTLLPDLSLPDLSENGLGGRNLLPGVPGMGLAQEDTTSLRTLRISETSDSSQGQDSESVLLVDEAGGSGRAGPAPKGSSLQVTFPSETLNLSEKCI

Structure (SMILES) | NanoBRET Fold Response (PTGER4; PTGER4, 0.1μM tracer) | NanoBRET Fold Response (PTGER4; PTGER4, 1μM tracer) | NanoBRET Fold Response (P2RY13; P2RY13, 0.1μM tracer) | NanoBRET Fold Response (P2RY13; P2RY13, 1μM tracer) | NanoBRET Fold Response (RXFP4; RXFP4, 0.1μM tracer) | NanoBRET Fold Response (RXFP4; RXFP4, 1μM tracer) | NanoBRET Fold Response (BRS3; BRS3, 0.1μM tracer) | NanoBRET Fold Response (BRS3; BRS3, 1μM tracer) | NanoBRET Fold Response (GALR3; GALR3, 0.1μM tracer) | NanoBRET Fold Response (GALR3; GALR3, 1μM tracer) | further results
COc1ccccc1N1CCN(CCCCN2C(=O)c3ccc(CNC(=O)CCOCCOCCOCCOCCNC(=O)CCc4ccc5n4[B-](F)(F)[N+]4=C(c6ccc[nH]6)C=CC4=C5)cc3C2=O)CC1 [NAN-190-2-NB590] | – | – | – | – | – | – | – | – | – | – | NanoBRET Fold Response (PTGER4; PTGER4, tracer 0.1μM): 1.02; NanoBRET Fold Response (PTGER4; PTGER4, tracer 1μM): 1.01; NanoBRET Fold Response (P2RY13; P2RY13, tracer 0.1μM): 0.97; NanoBRET Fold Response (P2RY13; P2RY13, tracer 1μM): 1.04; NanoBRET Fold Response (RXFP4; RXFP4, tracer 1μM): 0.97; NanoBRET Fold Response (BRS3; BRS3, tracer 0.1μM): 1.04; NanoBRET Fold Response (BRS3; BRS3, tracer 1μM): 0.97; NanoBRET Fold Response (GALR3; GALR3, tracer 0.1μM): 0.97; NanoBRET Fold Response (GALR3; GALR3, tracer 1μM): 1.10
CN1CCN(C2=Nc3cc(Cl)ccc3N(CC(=O)NCCOCCOCCOCCOCCNC(=O)CCc3ccc4n3[B-](F)(F)[N+]3=C(c5ccc[nH]5)C=CC3=C4)c3ccccc32)CC1 [Clozapine-c-2-NB590] | 1.00 | 1.05 | 0.99 | 0.99 | 0.96 | 1.04 | 0.93 | 1.07 | 1.01 | 1.04 | –
COc1ccc2[nH]c(-c3ccc(CNC(=O)CCOCCOCCOCCOCCNC(=O)CCc4ccc5n4[B-](F)(F)[N+]4=C(c6ccc[nH]6)C=CC4=C5)cc3)c(CCNC(C)=O)c2n1 [AzomelatoninICO9-2-NB590] | – | – | – | – | – | – | – | – | – | – | NanoBRET Fold Response (PTGER4; 0.1μM tracer): 0.97; NanoBRET Fold Response (PTGER4; 1μM tracer): 0.97; NanoBRET Fold Response (P2RY13; 0.1μM tracer): 0.87; NanoBRET Fold Response (P2RY13; 1μM tracer): 1.09; NanoBRET Fold Response (RXFP4; 0.1μM tracer): 0.94; NanoBRET Fold Response (RXFP4; 1μM tracer): 0.96; NanoBRET Fold Response (BRS3; 0.1μM tracer): 0.86; NanoBRET Fold Response (BRS3; 1μM tracer): 0.91; NanoBRET Fold Response (GALR3; 0.1μM tracer): 1.06; NanoBRET Fold Response (GALR3; 1μM tracer): 1.08
O=C(CCOCCOCCOCCOCCNC(=O)CCc1ccc2n1[B-](F)(F)[N+]1=C(c3ccc[nH]3)C=CC1=C2)NCCCN1CCN(C2=Nc3cc(Cl)ccc3Nc3ccccc32)CC1 [Clozapine-a-2-NB590] | 1.02 | 1.06 | 1.06 | 0.94 | 1.10 | 1.10 | 1.09 | 1.15 | 1.02 | 1.13 | –
